Tests used:
human RPE cells = test: Oxidative-stress and Erastin induced cell death in human RPE cells; assay type: cell-based
[1] = test system: degenerating neurons of hypothalamus; test: Fluoro-Jade B staining of organotypic slices of hypothalamus; assay type: cell-based; conditions: 500 nM, 48 h incubation, adult obese diabetic db/db mice
Source text: Fluoro-Jade b (F-Jb) stains degenerating neurons.

IL6 = IL6 (marker of SASP) induced by IL1β in diabetic hypothalamus; assay type: cell-based; conditions: diabetic db/db mice hypothalamus, different effects in female and male mice
Adiponectin = Adiponectin levels in diabetic hypothalamus and adipose tissue
[2] = test system: IL-6, IL-1β, IL-8/CXCL8, CCL2/MCP-1, CXCL1/KC/GRO, VEGF, ICAM1(CD54), IL-10; test: Sandwich ELISA of cytokines and chemokines in HNEpC challenged with stressors; assay type: cell-based, human; conditions: allergens
Source text: • Lipopolysaccharide (LPS) from Escherichia coli serotype 0111:B4 (Catalog #L4391) were obtained from Sigma-Aldrich. LPS is the principal component of Gram-negative bacteria that activates the innate immune system through its recognition by Toll-like receptor 4 (TLR4). This leads to a signaling cascade that ultimately results in the activation of NF-κB and the production of proinflammatory cytokines. LPS we used for our experiments is a preparation of smooth (S)-form LPS purified from the Gram-negative E. coli 0111:B4 that was used at 30 μg/mL to challenge HNEpC. • Polyinosinic-polycytidylic acid (abbreviated as poly(I:C) or poly(rI):poly(rC)) is a synthetic analog of double-stranded viral RNA (dsRNA), a molecular pattern associated with viral infection such as loss of epithelial integrity, increased production of mucus and inflammatory cytokines. Poly(I:C), a TLR3 agonist activates the antiviral pattern recognition receptors TLR3, RIG-I/MDA5 and PKR, thereby inducing signaling via multiple inflammatory pathways, including NF-κB and IRF. High Molecular Weight Poly(I:C) comprises long strands of inosine poly(I) homopolymer annealed to strands of cytidine poly(C) homopolymer. The average size of Poly(I:C) HMW is from 1.5 kb to 8 kb. […]

| SMILES | oxidative-stress and Erastin induced cell deaths (human RPE cells) | Fluoro-Jade b (F-Jb) signal (neuroprotection) [1] | levels of IL6 (marker of SASP) (IL6) | adiponectin in subcutaneous adipose tissue (SAT) and visceral adipose tissue (VAT) (Adiponectin) | levels of Adiponectin (Adiponectin; ELV34 treatment) | adiponectin in diabetic hypothalamus (Adiponectin; female and males) | allergen-triggered production of inflammatory cytokines, chemokines, ICAM1 and induction of autophagy and SASP [2] |
| --- | --- | --- | --- | --- | --- | --- | --- |
| CC/C=C\C[C@H](O)\C=C/C=C/C=C/[C@H](O)C/C=C\C/C=C\CCCCCCCCCCCCC(=O)O [ELV-N-32] | counteracted |  |  |  |  |  |  |
| CC/C=C\C[C@H](O)\C=C/C=C/C=C/[C@H](O)C/C=C\C/C=C\CCCCCCCCCCCCCCC(=O)O [ELV-N-34] |  | decrease of F-Jb signal | reduced | Differential effect | increased | trend of increase | attenuated |

From US20240075004A1, “VERY-LONG-CHAIN POLYUNSATURATED FATTY ACIDS, ELOVANOID HYDROXYLATED DERIVATIVES, AND METHODS OF USE” (The Board of Supervisors of Louisiana State University and …, priority 2020, published 2024)
